A short description of data set [1]: Dissolution profiles of tablets with 3% magnesium stearate (blending process, particle size). Particulars: tablet with 3% magnesium stearate, Compound I particles blended with a filler, no pre-blending with hydrophobic colloidal silicon dioxide. In kind it is physicochemical. As to the method: […] The particle size of Compound I was determined by static image analysis.
During manufacturing of certain tablets comprising 0.5-1% magnesium stearate, film formation on tablet punches was observed. The film formed after compression of a few tablets. After extensive investigation, the problem was resolved by increasing the magnesium stearate content in the composition up to 3%. […]
Using this manufacturing procedure, consistently fast dissolution profiles were obtained for different particle sizes of Compound I without leading to the unwanted film formation on tablet punches. Dissolution profiles of tablets manufactured according to this procedure and containing various particle sizes of Compound I are depicted in FIG. 9.

Data set [2] can be described thus: Drug concentration in stool samples of healthy human subjects. In kind it is in vivo. An excerpt:
As described previously in U.S. Pat. No. 9,725,470, the absorption and distribution of Compound I has been extensively profiled in preclinical assays. […] In addition, Compound I is designed to have its effect at the site of action in the gastrointestinal tract.

Data set [3] relates to oxazolone-induced colitis. Description: Oxazolone-induced colitis model. The settings on record: mice. It counts as in vivo. An excerpt:
(§1) Oxazolone-induced colitis is an experimental model that has a histological resemblance to human ulcerative colitis.

In a further data set the test system is immunosuppression. Description: Immunosuppression model (systemic functional activity). It counts as in vivo. The settings on record: mice, same dose required to demonstrate efficacy in the oxazolone model.
Excerpt: as §1

In another data set the target is JAK1 (Homo sapiens, UniProt P23458). Particulars: cited from earlier work.
Sequence of JAK1 (P23458 whole entry): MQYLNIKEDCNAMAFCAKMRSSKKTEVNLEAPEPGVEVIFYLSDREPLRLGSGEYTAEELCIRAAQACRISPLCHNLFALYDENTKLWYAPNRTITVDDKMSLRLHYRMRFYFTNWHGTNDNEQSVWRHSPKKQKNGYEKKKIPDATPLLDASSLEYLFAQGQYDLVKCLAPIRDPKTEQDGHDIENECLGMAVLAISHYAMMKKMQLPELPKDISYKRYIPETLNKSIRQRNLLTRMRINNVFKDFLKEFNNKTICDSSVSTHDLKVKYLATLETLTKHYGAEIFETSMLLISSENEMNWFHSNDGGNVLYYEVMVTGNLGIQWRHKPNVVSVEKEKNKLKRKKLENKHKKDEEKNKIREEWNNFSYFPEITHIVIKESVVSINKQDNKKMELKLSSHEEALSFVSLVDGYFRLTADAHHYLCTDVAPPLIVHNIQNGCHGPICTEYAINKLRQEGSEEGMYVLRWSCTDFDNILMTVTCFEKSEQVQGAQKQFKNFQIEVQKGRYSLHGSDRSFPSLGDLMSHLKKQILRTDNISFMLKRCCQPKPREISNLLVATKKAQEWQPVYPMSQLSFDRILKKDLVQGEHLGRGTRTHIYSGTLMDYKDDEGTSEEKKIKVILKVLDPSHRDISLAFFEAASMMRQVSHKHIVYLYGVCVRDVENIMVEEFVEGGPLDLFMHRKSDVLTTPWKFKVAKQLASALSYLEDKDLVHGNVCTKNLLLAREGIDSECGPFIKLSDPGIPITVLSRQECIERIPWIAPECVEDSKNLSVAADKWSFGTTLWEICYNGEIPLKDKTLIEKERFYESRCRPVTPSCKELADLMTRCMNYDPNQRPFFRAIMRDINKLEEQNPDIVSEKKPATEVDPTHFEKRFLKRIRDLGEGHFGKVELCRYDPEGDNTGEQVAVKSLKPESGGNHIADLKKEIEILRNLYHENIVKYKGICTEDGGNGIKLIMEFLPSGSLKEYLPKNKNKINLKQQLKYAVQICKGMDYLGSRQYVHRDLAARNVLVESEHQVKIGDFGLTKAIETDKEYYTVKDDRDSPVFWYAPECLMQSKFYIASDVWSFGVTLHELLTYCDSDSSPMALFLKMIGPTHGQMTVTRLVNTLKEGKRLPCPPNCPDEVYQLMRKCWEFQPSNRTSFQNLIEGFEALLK
A further data set concerns the target JAK2 (Homo sapiens, UniProt O60674). The settings on record: cited from earlier work.
In another data set the target is T1, JAK3 (Homo sapiens, UniProt P52333).
T1 sequence (P52333 1-1124): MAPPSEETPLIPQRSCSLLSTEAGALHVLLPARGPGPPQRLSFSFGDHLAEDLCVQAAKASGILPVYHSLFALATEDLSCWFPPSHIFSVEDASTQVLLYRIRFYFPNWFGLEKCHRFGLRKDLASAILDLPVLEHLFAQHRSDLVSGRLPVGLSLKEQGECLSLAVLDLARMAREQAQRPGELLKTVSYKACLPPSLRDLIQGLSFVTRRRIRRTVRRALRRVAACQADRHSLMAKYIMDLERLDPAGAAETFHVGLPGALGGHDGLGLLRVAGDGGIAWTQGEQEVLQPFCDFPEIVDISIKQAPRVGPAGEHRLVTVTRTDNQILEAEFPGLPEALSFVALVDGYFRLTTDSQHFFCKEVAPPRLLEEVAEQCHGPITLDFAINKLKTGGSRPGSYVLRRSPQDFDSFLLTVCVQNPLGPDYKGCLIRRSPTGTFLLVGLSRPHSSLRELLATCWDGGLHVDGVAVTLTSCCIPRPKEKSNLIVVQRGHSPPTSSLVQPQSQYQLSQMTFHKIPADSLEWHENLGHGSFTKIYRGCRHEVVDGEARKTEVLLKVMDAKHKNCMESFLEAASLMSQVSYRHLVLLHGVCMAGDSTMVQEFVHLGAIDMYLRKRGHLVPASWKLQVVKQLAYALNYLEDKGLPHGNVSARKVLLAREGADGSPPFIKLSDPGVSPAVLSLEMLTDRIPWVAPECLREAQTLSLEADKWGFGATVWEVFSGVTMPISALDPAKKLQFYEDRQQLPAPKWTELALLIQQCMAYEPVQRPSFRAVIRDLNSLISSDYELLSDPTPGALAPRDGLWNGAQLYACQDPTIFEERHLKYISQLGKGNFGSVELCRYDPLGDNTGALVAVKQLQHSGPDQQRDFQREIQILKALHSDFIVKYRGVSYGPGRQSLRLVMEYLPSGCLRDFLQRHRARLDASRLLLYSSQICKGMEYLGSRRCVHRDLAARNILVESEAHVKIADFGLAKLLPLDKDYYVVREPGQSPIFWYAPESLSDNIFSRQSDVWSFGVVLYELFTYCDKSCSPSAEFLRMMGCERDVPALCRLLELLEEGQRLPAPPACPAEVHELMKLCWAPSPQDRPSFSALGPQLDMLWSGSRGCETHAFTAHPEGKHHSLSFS
The settings on record: cited from earlier work.

Another data set addresses TYK2 (Homo sapiens, UniProt P29597). Particulars: cited from earlier work.
The conditions of data set [4]: cannulated rats; cited from earlier work.
The conditions of data set [5]: rat; cited from earlier work.
For data set [6] the following is noted: oral dosing, preclinical species; cited from earlier work.

Sequence of JAK2 (O60674 whole entry): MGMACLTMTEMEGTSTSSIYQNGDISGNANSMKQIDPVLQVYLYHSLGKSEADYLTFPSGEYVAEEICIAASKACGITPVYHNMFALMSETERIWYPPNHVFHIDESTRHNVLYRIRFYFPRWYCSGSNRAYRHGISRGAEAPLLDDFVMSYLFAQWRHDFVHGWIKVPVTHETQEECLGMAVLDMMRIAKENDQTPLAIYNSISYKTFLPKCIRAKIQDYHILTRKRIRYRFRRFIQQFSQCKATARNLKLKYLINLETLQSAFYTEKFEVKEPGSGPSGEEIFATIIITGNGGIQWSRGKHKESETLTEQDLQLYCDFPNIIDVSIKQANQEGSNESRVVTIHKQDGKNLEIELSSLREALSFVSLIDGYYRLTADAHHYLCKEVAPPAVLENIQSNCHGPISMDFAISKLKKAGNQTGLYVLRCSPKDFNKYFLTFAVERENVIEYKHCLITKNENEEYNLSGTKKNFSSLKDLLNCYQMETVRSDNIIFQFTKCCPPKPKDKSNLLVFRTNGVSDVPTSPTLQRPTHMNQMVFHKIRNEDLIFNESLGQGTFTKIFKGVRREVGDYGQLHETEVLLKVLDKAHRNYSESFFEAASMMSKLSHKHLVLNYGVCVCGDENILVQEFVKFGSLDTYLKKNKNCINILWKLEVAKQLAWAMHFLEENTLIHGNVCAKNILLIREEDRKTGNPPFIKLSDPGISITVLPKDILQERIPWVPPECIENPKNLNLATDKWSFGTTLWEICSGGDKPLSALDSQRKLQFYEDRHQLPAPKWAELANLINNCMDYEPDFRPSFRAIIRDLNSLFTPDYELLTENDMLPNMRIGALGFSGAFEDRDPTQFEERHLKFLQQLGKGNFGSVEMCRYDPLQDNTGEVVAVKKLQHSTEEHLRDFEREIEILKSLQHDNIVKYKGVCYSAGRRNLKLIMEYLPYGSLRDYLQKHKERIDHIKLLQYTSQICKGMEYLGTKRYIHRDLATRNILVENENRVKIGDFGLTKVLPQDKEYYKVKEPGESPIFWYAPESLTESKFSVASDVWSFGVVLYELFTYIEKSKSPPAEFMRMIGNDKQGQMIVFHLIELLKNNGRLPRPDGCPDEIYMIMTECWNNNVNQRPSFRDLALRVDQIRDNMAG
Sequence of TYK2 (P29597 whole entry): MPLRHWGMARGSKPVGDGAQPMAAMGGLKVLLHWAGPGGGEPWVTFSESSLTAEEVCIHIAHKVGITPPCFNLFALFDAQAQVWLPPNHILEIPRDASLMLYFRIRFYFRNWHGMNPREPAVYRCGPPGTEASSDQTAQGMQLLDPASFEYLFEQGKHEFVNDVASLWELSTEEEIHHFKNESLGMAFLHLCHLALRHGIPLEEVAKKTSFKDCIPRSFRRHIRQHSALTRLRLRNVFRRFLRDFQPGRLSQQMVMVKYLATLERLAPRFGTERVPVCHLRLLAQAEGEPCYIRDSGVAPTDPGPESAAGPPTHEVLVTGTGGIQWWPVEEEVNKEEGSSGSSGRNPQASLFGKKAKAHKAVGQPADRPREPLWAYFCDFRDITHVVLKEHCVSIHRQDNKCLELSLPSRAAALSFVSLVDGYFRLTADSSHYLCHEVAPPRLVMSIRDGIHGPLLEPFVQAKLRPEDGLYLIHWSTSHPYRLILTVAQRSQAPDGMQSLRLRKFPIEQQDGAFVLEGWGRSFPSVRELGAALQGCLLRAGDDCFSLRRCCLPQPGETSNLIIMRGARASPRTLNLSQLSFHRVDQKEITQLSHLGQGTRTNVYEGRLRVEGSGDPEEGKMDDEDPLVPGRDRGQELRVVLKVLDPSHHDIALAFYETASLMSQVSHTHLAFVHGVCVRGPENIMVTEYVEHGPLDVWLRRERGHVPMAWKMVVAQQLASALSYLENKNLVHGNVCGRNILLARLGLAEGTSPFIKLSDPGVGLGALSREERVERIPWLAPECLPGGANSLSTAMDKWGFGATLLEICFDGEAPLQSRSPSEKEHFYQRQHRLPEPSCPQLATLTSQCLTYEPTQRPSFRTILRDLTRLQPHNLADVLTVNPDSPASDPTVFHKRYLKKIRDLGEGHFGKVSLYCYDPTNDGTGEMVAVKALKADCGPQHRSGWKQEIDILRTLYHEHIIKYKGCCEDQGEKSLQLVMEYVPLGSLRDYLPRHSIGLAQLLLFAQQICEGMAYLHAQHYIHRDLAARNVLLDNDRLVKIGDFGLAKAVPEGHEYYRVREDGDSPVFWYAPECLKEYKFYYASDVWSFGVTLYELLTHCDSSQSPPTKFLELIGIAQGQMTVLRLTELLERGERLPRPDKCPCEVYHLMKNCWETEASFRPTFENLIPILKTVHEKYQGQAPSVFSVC

Regarding `Cc1cc(Nc2cc3ncccc3c(N[C@@H]3C[C@H]4CC[C@@H](C3)N4CCC#N)n2)n[nH]1` [Compound I, 3-((1R,3s,5S)-3-((7-((5-methyl-1H-pyrazol-3-yl)amino)-1,6-naphthyridin-5-yl)amino)-8-azabicyclo[3.2.1]octan-8-yl)propanenitrile], in [1], the “Dissolution rate (FIG. 8)” value is “reduced dissolution rate”. In addition, the “Drug concentration in stool samples” value in [2] is reported as “high drug concentration”. For the same compound, in data set [3], the “Activity in the oxazolone-induced colitis model” value is listed as “demonstrated activity”. Also, in the data set on immunosuppression, the Effect of immunosuppression entry is “minimal effect of immunosuppression”. The “Inhibition of JAK1” value on JAK1 is listed as “potent inhibitor”. The “Inhibition of JAK2” value at JAK2 is given as “potent inhibitor”. Moreover, the “Inhibition of JAK3” value on JAK3 is “potent inhibitor”. The “Inhibition of TYK2” value at TYK2 was “potent inhibitor”. Besides, the “Absorption into plasma at the portal vein” value in data set [4] is on record as “low absorption”. The “Ratio of exposure in the colon to exposure in plasma” value in [5] is given as “greater than 450”. Moreover, the “Exposure throughout the gastrointestinal tract compared with exposure in plasma” value in [6] is “significantly higher exposure”.

These data come from US11795180B2, “Formulation of a pan-JAK inhibitor” (THERAVANCE BIOPHARMA R&D IP, LLC, priority 2020, dated 2023).
